Experiments:
[1] = target: GDP-bound NRAS wild-type protein (Homo sapiens, UniProt P01111); assay: Binding to NRAS by surface plasmon resonance (SPR), Single Cycle Kinetics; conditions: SPR, GDP-bound NRAS wild-type vs GDP-bound KRAS wild-type
[2] = target: GDP-bound HRAS wild-type protein (Homo sapiens, UniProt P01112); assay: Binding to HRAS by surface plasmon resonance (SPR), Single Cycle Kinetics; conditions: SPR, GDP-bound HRAS wild-type vs GDP-bound KRAS wild-type
Chain of GDP-bound HRAS wild-type protein (P01112 whole entry): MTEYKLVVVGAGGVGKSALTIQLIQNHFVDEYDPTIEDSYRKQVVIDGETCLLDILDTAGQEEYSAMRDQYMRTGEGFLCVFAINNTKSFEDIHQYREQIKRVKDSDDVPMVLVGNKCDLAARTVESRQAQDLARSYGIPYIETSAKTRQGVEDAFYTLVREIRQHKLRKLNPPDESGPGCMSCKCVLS

Chain of GDP-bound NRAS wild-type protein (P01111 whole entry): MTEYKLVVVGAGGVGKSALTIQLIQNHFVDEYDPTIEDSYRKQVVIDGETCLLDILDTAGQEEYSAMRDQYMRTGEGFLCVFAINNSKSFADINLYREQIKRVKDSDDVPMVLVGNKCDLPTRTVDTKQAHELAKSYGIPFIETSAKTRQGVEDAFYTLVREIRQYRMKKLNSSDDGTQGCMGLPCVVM

For `CCO[C@@H]1C[C@H]2C(=O)NC3(CCCC3)C(=O)N(C)[C@@H](C3CCCC3)C(=O)N(C)[C@H](C(=O)N(C)C)CC(=O)N(C)[C@@H](CC(C)C)C(=O)N[C@@H]([C@@H](C)CC)C(=O)N(C)CC(=O)N(C)[C@H]3C/C=C\CCN(C3=O)[C@@H](Cc3ccc(C(F)(F)F)cc3)C(=O)N(C)CC(=O)N[C@@H](CCc3cc(F)c(Cl)c(F)c3)C(=O)N2C1` [PP2269], the “NRAS/KRAS (ratio of KD value with respect to NRAS to KD value with respect to KRAS)” value [1] was “A (a compound having 10 or more and less than 20 is denoted as A)” and the “HRAS/KRAS (ratio of KD value with respect to HRAS to KD value with respect to KRAS)” value [2] was “A (a compound having 10 or more and less than 20 is denoted as A)”.

With `CCC[C@H]1C(=O)N[C@@H]([C@@H](C)CC)C(=O)N(C)CC(=O)N(C)[C@H]2C/C=C\CCN(C2=O)[C@@H](Cc2ccc(C(F)(F)F)cc2)C(=O)N(C)CC(=O)N[C@@H](CCc2ccc(C(F)(F)F)c(Cl)c2)C(=O)N2C[C@@H](C)C[C@H]2C(=O)NC2(CC(C)(C)C2)C(=O)N(C)[C@@H](C2CCCC2)C(=O)N(C)[C@H](C(=O)N(C)C)CC(=O)N1C` [PP2270] the “NRAS/KRAS (ratio of KD value with respect to NRAS to KD value with respect to KRAS)” value [1] was “B (a compound having 3 or more and less than 10 is denoted as B)” and the “HRAS/KRAS (ratio of KD value with respect to HRAS to KD value with respect to KRAS)” value [2] was “B (a compound having 3 or more and less than 10 is denoted as B)”.

In the case of `CC[C@@H]1C[C@H]2C(=O)NC3(CCCC3)C(=O)N(C)[C@@H](C3CCCC3)C(=O)N(C)[C@H](C(=O)N(C)CC)CC(=O)N(C)[C@@H](C)C(=O)N[C@@H]([C@@H](C)CC)C(=O)N(C)CC(=O)N(C)[C@H]3C/C=C\CCN(C3=O)[C@@H](Cc3ccc(C(F)(F)F)cc3)C(=O)N(C)CC(=O)N[C@@H](CCc3cc(F)c(C(F)(F)F)c(F)c3)C(=O)N2C1` [PP2271], the “NRAS/KRAS (ratio of KD value with respect to NRAS to KD value with respect to KRAS)” value [1] is reported as “A (a compound having 10 or more and less than 20 is denoted as A)” and the “HRAS/KRAS (ratio of KD value with respect to HRAS to KD value with respect to KRAS)” value [2] is reported as “A (a compound having 10 or more and less than 20 is denoted as A)”.

For `CCC[C@@H]1C[C@H]2C(=O)NC3(CCCC3)C(=O)N(C)[C@@H](C3CCCC3)C(=O)N(C)[C@H](C(=O)N(C)CC)CC(=O)N(C)[C@@H](C)C(=O)N[C@@H]([C@@H](C)CC)C(=O)N(C)CC(=O)N(C)[C@H]3C/C=C\CCN(C3=O)[C@@H](Cc3ccc(C(F)(F)F)cc3)C(=O)N(C)CC(=O)N[C@@H](CCc3cc(F)c(C(F)(F)F)c(F)c3)C(=O)N2C1` [PP2272], the “NRAS/KRAS (ratio of KD value with respect to NRAS to KD value with respect to KRAS)” value [1] was “AA (a compound having 20 or more is denoted as AA)” and the “HRAS/KRAS (ratio of KD value with respect to HRAS to KD value with respect to KRAS)” value [2] was “A (a compound having 10 or more and less than 20 is denoted as A)”.

In the case of `CCC[C@@H]1C[C@H]2C(=O)NC3(CC(C)(C)C3)C(=O)N(C)[C@@H](C3CCCC3)C(=O)N(C)[C@H](C(=O)N(C)C)CC(=O)N(C)[C@@H](C)C(=O)N[C@@H]([C@@H](C)CC)C(=O)N(C)CC(=O)N(C)[C@H]3C/C=C\CCN(C3=O)[C@@H](Cc3ccc(C(F)(F)F)cc3)C(=O)N(C)CC(=O)N[C@@H](CCc3cc(F)c(C(F)(F)F)c(F)c3)C(=O)N2C1` [PP2273], the “NRAS/KRAS (ratio of KD value with respect to NRAS to KD value with respect to KRAS)” value [1] is reported as “AA (a compound having 20 or more is denoted as AA)” and the “HRAS/KRAS (ratio of KD value with respect to HRAS to KD value with respect to KRAS)” value [2] is reported as “A (a compound having 10 or more and less than 20 is denoted as A)”.

`CCC[C@@H]1C[C@H]2C(=O)NC3(CC(C)(C)C3)C(=O)N(C)[C@@H](C3CCCC3)C(=O)N(C)[C@H](C(=O)N(C)C)CC(=O)N(C)[C@@H](COC)C(=O)N[C@@H]([C@@H](C)CC)C(=O)N(C)CC(=O)N(C)[C@H]3C/C=C\CCN(C3=O)[C@@H](Cc3ccc(C(F)(F)F)cc3)C(=O)N(C)CC(=O)N[C@@H](CCc3ccc(C(F)(F)F)c(Cl)c3)C(=O)N2C1` [PP2275] was tested, and the “NRAS/KRAS (ratio of KD value with respect to NRAS to KD value with respect to KRAS)” value [1] was “A (a compound having 10 or more and less than 20 is denoted as A)” and the “HRAS/KRAS (ratio of KD value with respect to HRAS to KD value with respect to KRAS)” value [2] was “A (a compound having 10 or more and less than 20 is denoted as A)”.

— patent US20250230193A1, “CYCLIC COMPOUND HAVING SELECTIVE KRAS INHIBITORY EFFECT ON HRAS AND NRAS” (CHUGAI SEIYAKU KABUSHIKI KAISHA, priority 2022, published 2025)
